Patent publication US20110111115A1, “REBAUDIOSIDE A POLYMORPHS AND METHODS TO PREPARE THEM” (priority 2009, published 2011)

Assay: Solubility in water of the rebaudioside A polymorph
Assay type: physicochemical
Conditions: 25° C.

solubility in water: about 1.5 mg/ml
Structure (SMILES): C=C1C[C@@]23CC[C@H]4[C@@](C)(CCC[C@@]4(C)C(=O)O[C@@H]4O[C@H](CO)[C@@H](O)[C@H](O)[C@H]4O)[C@@H]2CC[C@]1(O[C@@H]1O[C@H](CO)[C@@H](O)[C@H](O[C@@H]2O[C@H](CO)[C@@H](O)[C@H](O)[C@H]2O)[C@H]1O[C@@H]1O[C@H](CO)[C@@H](O)[C@H](O)[C@H]1O)C3 [rebaudioside A polymorph, rebaudioside A]
